Source: the PolyMetriX glass transition set
± gives the standard deviation of the reports.

glass transition temperature | SMILES
217.00 °C | *Nc1ccccc1CCc1ccc(NC(=O)Nc2ccc(CCc3ccc(NC(*)=O)cc3)cc2)cc1 (repeat unit)
111.00 °C | *Oc1ccc(Oc2ccc(/C=N/CCCCCC/N=C/c3ccc(*)cc3)cc2)cc1 (repeat unit)
270.00 °C | *c1ccc(Oc2ccc(-c3cnc4ccc(Oc5ccc6nc(*)cnc6c5)cc4n3)cc2)cc1 (repeat unit)
142.00 °C | *CCc1ccc(NC(=O)c2cccc(C(=O)Nc3ccc(CCOC(=O)c4cccc(C(=O)O*)c4)cc3)c2)cc1 (repeat unit)
270.00 °C | *Nc1ccc(NC(=O)c2ccc(C(c3ccc(C(*)=O)c(C(=O)OCC)c3)(C(F)(F)F)C(F)(F)F)cc2C(=O)OCC)cc1 (repeat unit)
130.00 °C | *C(=O)OCC(COc1ccc(/N=N/c2ccc(C#N)cc2)cc1)OC(=O)c1ncccc1* (repeat unit)
221.00 °C | *CC(=O)Nc1ccc(Oc2cccc(Oc3ccc(NC(=O)CN4C(=O)c5ccc(C(c6ccc7c(c6)C(=O)N(*)C7=O)(C(F)(F)F)C(F)(F)F)cc5C4=O)cc3)c2)cc1 (repeat unit)
80.00 °C | *CC(C)(C)COC(=O)c1ccc(/C=C/c2ccc(C(=O)O*)cc2)cc1 (repeat unit)
223.00 °C | *Oc1ccc(S(=O)(=O)c2ccc(Oc3ccc(C(c4ccc(*)cc4)c4ccccc4C(=O)O)cc3)cc2)cc1 (repeat unit)
105.00 °C | *CC(=O)OC(=O)COc1ccc(C(C)(C)c2ccc(O*)cc2)cc1 (repeat unit)

Continued, molecule first:

SMILES | glass transition temperature
*/C(=C(\C#N)c1ccc(C(=O)OC2CCN(*)CC2)cc1)c1ccc(OC)cc1 (repeat unit) | 183.00 °C
*CC(*)(C)C(=O)OCc1ccccc1 (repeat unit) [Poly(benzyl methacrylate)] | 54.00 ± 0.5 °C
*CCCCCCCCOc1c(OC)cc(/C=C/c2ccc(/C=C/c3cc(OC)c(O*)c(OC)c3)cc2)cc1OC (repeat unit) | 69.40 °C
*c1ccc(-c2c(-c3ccc(-c4ccccc4)cc3)cc(-c3ccc(OCCCCCCCCCCOc4ccc(-c5cc(-c6ccc(-c7ccccc7)cc6)c(-c6ccc(-n7c(=O)c8cc9c(=O)n(*)c(=O)c9cc8c7=O)cc6)c(-c6ccc(-c7ccccc7)cc6)c5)cc4)cc3)cc2-c2ccc(-c3ccccc3)cc2)cc1 (repeat unit) | 121.00 °C
*OC(C)C(*)=O (repeat unit) [poly(l - lactic acid)] | 51.4 ± 43 °C
*c1cccc(C(=O)c2c(C)cc(C)c(N3C(=O)c4ccc(Oc5ccc6c(c5)C(=O)N(*)C6=O)cc4C3=O)c2C)c1 (repeat unit) | 287.00 °C
*/C=C(/*)c1c(C)cc(C(C)(C)C)cc1C (repeat unit) | 200.00 °C
*CC(*)OC(=O)c1ccccc1 (repeat unit) | 70.40 °C
*C(=O)c1ccc2c(c1)C(=O)N(c1c(C)cc(Cc3cc(C)c(N4C(=O)c5ccc(*)cc5C4=O)c(C)c3)cc1C)C2=O (repeat unit) | 320.00 ± 16 °C
*CC(*)C1CCC(C)CC1 (repeat unit) | 132.00 °C
*CC(*)(C)C(=O)OCCCCCCCCCCCOc1ccc(C(=O)Oc2ccc(C#N)cc2)cc1 (repeat unit) | 10.00 °C
*c1ccc(-c2ccc3c(c2)C(CCCCCCCC)(CCCCCCCC)c2cc(*)ccc2-3)cc1 (repeat unit) | 81.00 °C
*CCOCCOCCOCCOC(=O)NCCCCCCNC(=O)O* (repeat unit) | -17.00 °C
*c1ccc(Oc2ccc(Oc3ccc(N4C(=O)c5cccc(Oc6ccc(C(C)(C)c7ccc(Oc8cccc9c8C(=O)N(*)C9=O)cc7)cc6)c5C4=O)c(C)c3)cc2)cc1C (repeat unit) | 222.00 °C
*CC(COc1ccc(S(=O)(=O)c2ccc(O*)cc2)cc1)OC(C)=O (repeat unit) | 130.00 °C
*c1cc(C)c(-c2c(C)cc(-n3c(=O)c4cc5c(=O)n(*)c(=O)c5cc4c3=O)cc2C)c(C)c1 (repeat unit) | 353.00 °C
